For 35 compounds, EC50 results are on record in patent US11896591B2, “Compositions and methods for preparing and using mitochondrial uncouplers” (UNIVERSITY OF VIRGINIA PATENT FOUNDATION, priority 2017, dated 2024).

The experiment has as its system whole cells. Nature of the experiment: Oxygen consumption rate (OCR) in whole cells, Seahorse XF-24 Flux Analyzer. Format: cell-based. To be noted: binned EC50 values; increase in oxygen consumption rate in whole cells. The procedure: Biological activities of the compounds synthesized is determined by determining increase in oxygen consumption rate (OCR).
OCR is measured using a Seahorse XF-24 Flux Analyzer (Seahorse Biosciences, North Billerica, MA). NMuLi, C2C12, and L6 cells are seeded in a Seahorse 24-well tissue culture plate at a density of 3.5×10^4 cells/well, isolated cardiomyocytes at a density of 4×10^4 cells/well, and human primary fibroblasts at a density of 1.1×10^4 cells/well. The cells are then allowed to adhere for 24 h. […] Compounds are injected during the assay and OCR is measured using 2 min measurement periods.
2-3 wells are used per condition and averaged over three plates (n=6-9). Statistical significance is determined by two-way ANOVA with Bonferroni's posttest.

Molecules are shown by their SMILES.

The EC50 is the midpoint of the concentration-response curve. A high value points to a need for much substance. As to `Fc1ccccc1Nc1nc2nonc2nc1Nc1cccc(C(F)(F)F)c1` [Compound 4v, N^5-(2-fluorophenyl)-N^6-(3-(trifluoromethyl)phenyl)-[1,2,5]oxadiazolo[3,4-b]pyrazine-5,6-diamine], the EC50 was < 5 µM. `Fc1ccccc1Nc1nc2nonc2nc1Nc1ccc(C(F)(F)F)cc1` [Compound 4w, N^5-(2-fluorophenyl)-N^6-(4-(trifluoromethyl)phenyl)-[1,2,5]oxadiazolo[3,4-b]pyrazine-5,6-diamine]: the EC50 is < 5 µM. For the compound `FC(F)(F)c1ccc(Nc2nc3nonc3nc2Nc2cccc(C(F)(F)F)c2)cc1` [Compound 4x, N^5-(3-(trifluoromethyl)phenyl)-N^6-(4-(trifluoromethyl)phenyl)-[1,2,5]oxadiazolo[3,4-b]pyrazine-5,6-diamine], the EC50 was < 5 µM.

For the compound `COC(=O)c1ccc(Nc2nc3nonc3nc2Nc2ccccc2F)cc1` [Compound 4y, Methyl 4-((6-((2-fluorophenyl)amino)-[1,2,5]oxadiazolo[3,4-b]pyrazin-5-yl)amino)benzoate], the EC50 was < 5 µM. For the compound `Oc1ccc(F)c(Nc2nc3nonc3nc2Nc2ccccc2F)c1` [Compound 4z, 4-Fluoro-3-((6-((2-fluorophenyl)amino)-[1,2,5]oxadiazolo[3,4-b]pyrazin-5-yl)amino)phenol], the EC50 was > 20 µM. Then `CNc1nc2nonc2nc1Nc1ccccc1F` [Compound 7a, N^5-(2-fluorophenyl)-N^6-methyl-[1,2,5]oxadiazolo[3,4-b]pyrazine-5,6-diamine], with 5 to 20 µM; and `CCNc1nc2nonc2nc1Nc1ccccc1F` [Compound 7b, N^5-ethyl-N^6-(2-fluorophenyl)-[1,2,5]oxadiazolo[3,4-b]pyrazine-5,6-diamine], with 5 to 20 µM; and `CCCNc1nc2nonc2nc1Nc1ccccc1F` [Compound 7c, N^5-(2-fluorophenyl)-N^6-propyl-[1,2,5]oxadiazolo[3,4-b]pyrazine-5,6-diamine], with 5 to 20 µM. The figure for `Fc1ccccc1Nc1nc2nonc2nc1NCCC(F)(F)F` [Compound 7d, N^5-(2-fluorophenyl)-N^6-(3,3,3-trifluoropropyl)-[1,2,5]oxadiazolo[3,4-b]pyrazine-5,6-diamine] is > 20 µM; for `Fc1ccccc1Nc1nc2nonc2nc1NC1CCCCC1` [Compound 7f, N^5-cyclohexyl-N^6-(2-fluorophenyl)-[1,2,5]oxadiazolo[3,4-b]pyrazine-5,6-diamine] it is 5 to 20 µM. As for `Fc1ccccc1Nc1nc2nsnc2nc1Nc1ccccc1F` [Compound 10, N^5,N^6-bis(2-fluorophenyl)-[1,2,5]thiadiazolo[3,4-b]pyrazine-5,6-diamine], the EC50 was 5 to 20 µM.

For the compound `Fc1ccccc1Nc1nc2nc(C(F)(F)F)[nH]c2nc1Nc1ccccc1F` [Compound 12a, N^5,N^6-bis(2-fluorophenyl)-2-(trifluoromethyl)-1H-imidazo[4,5-b]pyrazine-5,6-diamine], the EC50 lay in the range of 5 to 20 µM. Then `Fc1ccc(C(F)(F)F)cc1Nc1nc2nc(C(F)(F)F)[nH]c2nc1Nc1cc(C(F)(F)F)ccc1F` [Compound 12b, N^5,N^6-bis(2-fluoro-5-(trifluoromethyl)phenyl)-2-(trifluoromethyl)-1H-imidazo[4,5-b]pyrazine-5,6-diamine], with 5 to 20 µM; and `FC(F)(F)c1cc(Nc2nc3nc(C(F)(F)F)[nH]c3nc2Nc2cc(C(F)(F)F)cc(C(F)(F)F)c2)cc(C(F)(F)F)c1` [Compound 12d, N^5,N^6-bis(3,5-bis(trifluoromethyl)phenyl)-2-(trifluoromethyl)-1H-imidazo[4,5-b]pyrazine-5,6-diamine], with 5 to 20 µM. The figure for `Fc1c(Nc2nc3nc(C(F)(F)F)[nH]c3nc2Nc2cccc(C(F)(F)F)c2F)cccc1C(F)(F)F` [Compound 12e, N^5,N^6-bis(2-fluoro-3-(trifluoromethyl)phenyl)-2-(trifluoromethyl)-1H-imidazo[4,5-b]pyrazine-5,6-diamine] is 5 to 20 µM. Then `Fc1cc(Nc2nc3nc(C(F)(F)F)[nH]c3nc2Nc2ccc(OC(F)(F)F)c(F)c2)ccc1OC(F)(F)F` [Compound 12f, N^5,N^6-bis(3-fluoro-4-(trifluoromethoxy)phenyl)-2-(trifluoromethyl)-1H-imidazo[4,5-b]pyrazine-5,6-diamine], with 5 to 20 µM; and `Fc1cc(C(F)(F)F)ccc1Nc1nc2nc(C(F)(F)F)[nH]c2nc1Nc1ccc(C(F)(F)F)cc1F` [Compound 12g, N^5,N^6-bis(2-fluoro-4-(trifluoromethyl)phenyl)-2-(trifluoromethyl)-1H-imidazo[4,5-b]pyrazine-5,6-diamine], with < 5 µM; and `Fc1cc(Nc2nc3nc(C(F)(F)F)[nH]c3nc2Nc2ccc(C(F)(F)F)c(F)c2)ccc1C(F)(F)F` [Compound 12h, N^5,N^6-bis(3-fluoro-4-(trifluoromethyl)phenyl)-2-(trifluoromethyl)-1H-imidazo[4,5-b]pyrazine-5,6-diamine], with 5 to 20 µM.

For the compound `Fc1cc(F)cc(Nc2nc3nc(C(F)(F)F)[nH]c3nc2Nc2cc(F)cc(F)c2)c1` [Compound 12i, N^5,N^6-bis(3,5-difluorophenyl)-2-(trifluoromethyl)-1H-imidazo[4,5-b]pyrazine-5,6-diamine], the EC50 is 5 to 20 µM.

With `Fc1cccc(Nc2nc3nc(C(F)(F)F)[nH]c3nc2Nc2cccc(F)c2F)c1F` [Compound 12j, N^5,N^6-bis(2,3-difluorophenyl)-2-(trifluoromethyl)-1H-imidazo[4,5-b]pyrazine-5,6-diamine], the EC50 is < 5 µM. Then `Cc1ccc(Nc2nc3nc(C(F)(F)F)[nH]c3nc2Nc2ccc(C)cc2)cc1` [Compound 12k, N^5,N^6-di-p-tolyl-2-(trifluoromethyl)-1H-imidazo[4,5-b]pyrazine-5,6-diamine], with > 20 µM; and `FC(F)(F)c1nc2nc(Nc3ccccc3)c(Nc3ccccc3)nc2[nH]1` [Compound 12l, N^5,N^6-diphenyl-2-(trifluoromethyl)-1H-imidazo[4,5-b]pyrazine-5,6-diamine], with > 20 µM. The figure for `FC(F)(F)Oc1ccc(Nc2nc3nc(C(F)(F)F)[nH]c3nc2Nc2ccc(OC(F)(F)F)cc2)cc1` [Compound 12m, N^5,N^6-bis(4-(trifluoromethoxy)phenyl)-2-(trifluoromethyl)-1H-imidazo[4,5-b]pyrazine-5,6-diamine] is 5 to 20 µM. Then `COc1ccc(Nc2nc3nc(C(F)(F)F)[nH]c3nc2Nc2ccc(OC)cc2)cc1` [Compound 12n, N^5,N^6-bis(4-methoxyphenyl)-2-(trifluoromethyl)-1H-imidazo[4,5-b]pyrazine-5,6-diamine], with > 20 µM.

The compound `Fc1cccc(Nc2nc3[nH]c(C(F)(F)F)nc3nc2Nc2ccccc2F)c1` [Compound 12o, N^5-(2-fluorophenyl)-N^6-(3-fluorophenyl)-2-(trifluoromethyl)-1H-imidazo[4,5-b]pyrazine-5,6-diamine] registered an EC50 of 5 to 20 µM. Then `Fc1ccccc1Nc1nc2nc(C(F)(F)F)[nH]c2nc1Nc1ccc(OC(F)(F)F)cc1` [Compound 12p, N^5-(2-fluorophenyl)-N^6-(4-(trifluoromethoxy)phenyl)-2-(trifluoromethyl)-1H-imidazo[4,5-b]pyrazine-5,6-diamine], with < 5 µM; and `Fc1ccccc1Nc1nc2nc(C(F)(F)F)[nH]c2nc1Nc1cc(C(F)(F)F)cc(C(F)(F)F)c1` [Compound 12q, N^5-(2-fluorophenyl)-N^6-(3,5-bis(trifluoromethyl)phenyl)-2-(trifluoromethyl)-1H-imidazo[4,5-b]pyrazine-5,6-diamine], with 5 to 20 µM. The figure for `COc1ccc(Nc2nc3[nH]c(C(F)(F)F)nc3nc2Nc2ccccc2F)cc1` [Compound 12r, N^5-(2-fluorophenyl)-N^6-(4-methoxyphenyl)-2-(trifluoromethyl)-1H-imidazo[4,5-b]pyrazine-5,6-diamine] is > 20 µM; for `Fc1ccccc1Nc1nc2nc(C(F)(F)F)[nH]c2nc1Nc1ccccc1` [Compound 12s, N^5-(2-fluorophenyl)-N^6-phenyl-2-(trifluoromethyl)-1H-imidazo[4,5-b]pyrazine-5,6-diamine] it is 5 to 20 µM. Then `Fc1ccccc1Nc1nc2nc(C(F)(F)F)[nH]c2nc1Nc1cccc(C(F)(F)F)c1F` [Compound 12t, N^5-(2-fluorophenyl)-N^6-(2-fluoro-3-(trifluoromethyl)phenyl)-2-(trifluoromethyl)-1H-imidazo[4,5-b]pyrazine-5,6-diamine], with < 5 µM; and `Cc1ccc(Nc2nc3[nH]c(C(F)(F)F)nc3nc2Nc2ccccc2F)cc1` [Compound 12u, N^5-(2-fluorophenyl)-N^6-(p-tolyl)-2-(trifluoromethyl)-1H-imidazo[4,5-b]pyrazine-5,6-diamine], with 5 to 20 µM. Regarding `Fc1ccccc1Nc1nc2nc(C(F)(F)F)[nH]c2nc1NC1CCCCC1` [Compound 12v, N^5-(2-fluorophenyl)-N^6-cyclohexyl-2-(trifluoromethyl)-1H-imidazo[4,5-b]pyrazine-5,6-diamine], the EC50 is > 20 µM. Then `CCCNc1nc2[nH]c(C(F)(F)F)nc2nc1Nc1ccccc1F` [Compound 12w, N^5-(2-fluorophenyl)-N^6-propyl-2-(trifluoromethyl)-1H-imidazo[4,5-b]pyrazine-5,6-diamine], with > 20 µM; and `Cn1c(C(F)(F)F)nc2nc(Nc3ccccc3F)c(Nc3ccccc3F)nc21` [Compound 13a, N^5,N^6-bis(2-fluorophenyl)-1-methyl-2-(trifluoromethyl)-imidazo[4,5-b]pyrazine-5,6-diamine], with > 20 µM. The figure for `Cn1c(C(F)(F)F)nc2nc(Nc3cc(C(F)(F)F)ccc3F)c(Nc3cc(C(F)(F)F)ccc3F)nc21` [Compound 13b, N^5,N^6-bis(2-fluoro-5-(trifluoromethyl)phenyl)-1-methyl-2-(trifluoromethyl)-imidazo[4,5-b]pyrazine-5,6-diamine] is 5 to 20 µM.
